Results from US20070275953A1 (priority 2003, published 2007).
Where two headings read alike, the source gives them in different places.

Tests used:
[1] = biological target: T1, HIV-1 reverse transcriptase (Human immunodeficiency virus type 1 group M subtype B, UniProt P04585); test: HIV-1 in vitro reverse transcriptase activity (fixed-time RNA dependent DNA polymerase assay); format: biochemical; conditions: residual RT activity, compound at 10 μM; RT activity without compound set at 100%
T1 construct: fixed-time assay for HIV-1 reverse transcriptase RNA dependent DNA polymerase activity; RT was purchased from Calbiochem; purchased Calbiochem CAL382129-500
Protocol: For the in vitro inhibition studies of the HIV-1 reverse transcriptase activity, stock solutions of the compounds of the present invention were prepared in dimethyl sulfoxide at a final concentration of 10 mM and kept at room temperature. Nevirapine was purchased from Boehringer Ingelheim. Efavirenz was received from the NIH AIDS Research and Reference Reagent Program.
In vitro inhibition studies used a fixed-time assay for HIV-1 reverse transcriptase RNA dependent DNA polymerase activity. RT was purchased from Calbiochem (ref CAL382129-500). One unit of RT corresponds to the amount of enzyme which incorporates one nanomole of [^3H]TTP in 10 minutes at 37° C.
Assays were performed in a final volume of 50 μl. […] Reaction mixtures were incubated at 37° C. for 10 min. The incorporation rate was determined by a standard trichloroacetic acid precipitation procedure (adapted from Current protocols in molecular biology. Eds Wiley, MGH Harvard medical school) and liquid scintillation counting using a Wallac scintillation counter.
The in vitro activity of the compounds, at a final concentration of 10 μM, on the reverse transcriptase (RT) activity of HIV-1 is derivable from the relative (%) reduction in RT activity. Hereby, the RT activity in the absence of any of the compounds is set at 100%.

[2] = test system: HIV-1 with WT (wild type) RT in TZM-bl cells; test: Anti-HIV assay on TZM-bl cell line, WT RT; format: cell-based
Protocol: Wurzburg Jurkat T cells (subclone JR) were transfected with 10 μg of the circularly permuted infectious molecular clone HIVNL4-3 (Adachi et al., 1986. J. Virol, 59 (2), p 284-291). Two days later, co-cultivation with SupT1 cells (a human T-cell lymphoma cell line) was initiated to facilitate rapid production of progeny virions. Production of virus was measured by using the Innotest HIV Antigen mAb p24 kit (Innogenetics). At the peak of production cultures were harvested and filtered. The virus stocks were stored at −80° C. until used.
(§1) Anti-HIV activity and cytotoxicity of the compounds were tested on the TZM-b1 cell line. The TZM-b1 cell line (Wei et al. 2002. Antimicrob. Agents Chemother. Vol. 46, p 1896-1905) was received from the NIH AIDS Research and Reference Reagent Program. These cells were cultured in complete DMEM medium supplemented with 10% fetal bovine serum (FBS), and 1% Penicillin/Streptomycin. Exponentially growing cells were trypsinized, centrifuged and split twice weekly at 5 10^4 cells/ml.
(§2) The anti-HIV assay with TZM-b1 cells is essentially the same as described above with P4 cells. The main difference between the two cell lines is that the TZM-b1 cells express at their surface both the CD4 and CCR5 proteins, acting as receptor and co-receptor for HIV entry, respectively (Wei et al. 2002. Antimicrob. Agents Chemother. Vol. 46, p 1896-1905). This feature makes the cells very sensitive to infection by the virus. The TMZ-b1 cells were infected with equal amount of cell-free virus, corresponding to 10 ng of HIV p24 antigen. This amount is ten times lower than the amount used to infect the P4 cells.

[3] = test system: HIV-1 mutant Cys181RT in TZM-bl cells; test: Anti-HIV assay on TZM-bl cells, Cys181RT mutant; format: cell-based; conditions: read-out: EC50 Cys181RT TZM-bl
Text: (§3) In order to introduce mutation(s) at the level of the pol gene coding for the RT in the pNL4-3 plasmid containing the complete viral genome (Adachi et al., 1986. J. Virol., Vol. 59 p 284-291) we used the “Quick change mutagenesis kit” (Stratagene). The following mutations were separately introduced in pNL4-3: L100I, K103N, V108I, Y181C, Y188C, and the double mutations K103N/V108I. These mutations were chosen because of the resistance that they confer to existing NNRTI. The production procedure of the mutant viral stocks is identical to the one described above.
as §1, §2

[4] = test system: HIV-1 mutant Ile108RT in TZM-bl cells; test: Anti-HIV assay on TZM-bl cells, Ile108RT mutant; format: cell-based; conditions: read-out: EC50 Ile108RT TZM-bl
Text: as §3, §1, §2

[5] = test system: HIV-1 mutant Cys188RT in MT4 cells; test: Anti-HIV assay on MT4 cells, Cys188RT mutant; format: cell-based
Text: as §3
(§4) Anti-HIV activity of the compounds was tested on MT-4 cell line. The MT-4 cell line (Larder et al. 1989. Sciences, Vol. 243 p 1731) was received from the NIH AIDS Research and Reference Reagent Program. These cells were cultured in RPMI medium supplemented with 10% fetal bovine serum (FBS), and 1% Penicillin/Streptomycin. The cultures were split regularly to keep cells densities between 0.3 to 1.2 10^6 cells/ml.
(§5) The MT-4 cells rapidly die upon infection by HIV. In this system there is an inverse correlation between cells survival and the amount of viral replication.
(§6) Briefly, in the anti-HIV assay exponentially growing MT-4 cells were infected with HIV-1. 100 μl of infected MT-4 cells were seeded in 96-well plate at a concentration of 0.4 10^5 cells/ml, and 100 μl of the different drugs dilutions were added to the cells. After 4 days of incubation at 37° C., 5% CO2, cells survival was measured using MTS (3-(4-5-dimethylthiazol-2-yl)-5-(−(3-carboxymethoxyphenyl)-2-(4-sulfophenyl)-2H-tetrazolium) assays. This compound is reduced by viable cells in a colored soluble formazan salt.
(§7) The absorbance was measured on a Benchmark™ Microplate Reader (Biorad) (λ=490 nm) and compared with 12 cell control replicates (nor virus nor drug added) and 12 virus control wells (no drug added). Each assay was performed a minimum of three times. The 50% effective concentration (EC50) was calculated from each dose response curve using the CurveExpert 1.3 software.

[6] = test system: HIV-1 mutant Ile100RT in TZM-bl cells; test: Anti-HIV assay on TZM-bl cells, Ile100RT mutant; format: cell-based; conditions: read-out: EC50 Ile100RT TZM-bl
Text: as §3, §1, §2

[7] = test system: HIV-1 mutant Asn103/Ile108RT in MT4 cells; test: Anti-HIV assay on MT4 cells, Asn103/Ile108RT double mutant; format: cell-based
Text: as §3, §4, §5, §6, §7

[8] = Human immunodeficiency virus 1, MT4, read-out: EC50 Cys188RT MT4
[9] = Human immunodeficiency virus 1, TZM-bl
[10] = Human immunodeficiency virus 1, MT4, read-out: EC50 Asn103/Ile108RT MT4
[11] = MT4, double mutant Asn103/Ile108RT
[12] = MT4, mutant Cys188RT, read-out: EC50 Cys188RT MT4

Row | Compound | Relative (%) RT activity in vitro (compound added at 10 μM) [1] [%] | EC50 [2] [nM] | EC50 ([3]; TZM-bl, mutant Cys181RT) [nM] | EC50 ([4]; TZM-bl, mutant Ile108RT) [nM] | EC50 ([2]; Human immunodeficiency virus 1) [nM] | EC50 [5, 8] [nM] | EC50 [3, 9] [nM] | EC50 [6, 9] [nM] | EC50 [4, 9] [nM] | EC50 [7, 10] [nM] | EC50 Asn103/Ile108RT MT4 [7, 11] | EC50 ([6]; TZM-bl, mutant Ile100RT) [nM] | EC50 [5, 12] [nM] | EC50 ([7]; MT4, double mutant Asn103/Ile108RT, read-out: EC50 Asn103/Ile108RT MT4) [nM]
1 | CCOC(=O)c1c(OC2CC(C)CC(C)C2)c(CC)c(C)[nH]c1=O (single isomer, unassigned) [Z37inv] | 5.5 | 439 | 2540 | 1090 | – | – | – | – | – | – | – | – | – | –
2 | O=C1Nc2ccc(Cl)cc2[C@@](C#CC2CC2)(C(F)(F)F)O1 [Efavirenz, reference compound] | – | – | – | – | < 1 | 1 | < 1 | 17 | < 6 | 1190 | – | – | – | –
3 | Cc1ccnc2c1NC(=O)c1cccnc1N2C1CC1 [Nevirapine, reference compound] | 16.7 | – | – | – | 56 | > 5000 | 8300 | 50 | 91 | – | inactive | – | – | –
4 | CCc1c(C)[nH]c(=O)c(CO)c1OC1CC(C)CC(C)C1 (stereo not drawn) [Z45inv] | 12.1 | 197 | 3200 | – | – | – | – | – | – | – | – | 382 | – | –
5 | CCc1c(C)[nH]c(=O)c([N+](=O)[O-])c1OC1CC(C)CC(C)C1 (stereo not drawn) [Z91inv, 3-nitro-5-ethyl-6-methyl-4-[(3,5-dimethylcyclohexyl)oxy]pyridine-2(1H)-one] | 0 | – | – | – | < 1 | 43 | 58 | 2 | < 1 | 9900 | – | – | – | –
6 | CCc1c(C)[nH]c(=O)c(CSC(C)=O)c1OC1CC(C)CC(C)C1 (stereo not drawn) [Z114] | 0 | 11 | 411 | 12 | – | – | – | – | – | – | inactive | 77 | 1680 | –
7 | CCc1c(C)[nH]c(=O)c(N(C)C)c1OC1CC(C)CC(C)C1 (stereo not drawn) [Z150, 3-(dimethylamino)-5-ethyl-6-methyl-4-[(3,5-dimethylcyclohexyl)oxy]pyridine-2(1H)-one] | 0.9 | – | – | – | < 1 | 6 | 86 | 20 | 4 | 958 | – | – | – | –
8 | CCc1c(C)[nH]c(=O)c(CN=[N+]=[N-])c1OC1CC(C)CC(C)C1 (stereo not drawn) [Z153] | 0.7 | < 1 | 83 | 1 | – | – | – | – | – | – | – | 29 | 33 | 3480
9 | CCc1c(C)[nH]c(=O)c(C)c1OC1CC(C)CC(C)C1 (stereo not drawn) [Z154] | 1.6 | 3 | 288 | 14 | – | – | – | – | – | – | – | 40 | – | –
